Calls of active or inactive are those of the source. The calls are words filed in the database; no cut-off is given here.
What was measured:
[1] = tested on: Vero; experiment: Protection against Escherichia coli Stx2a-induce d african green monkey Vero cell death assessed as protection of cell viability incubated pretreated cells for 1 hr measured after 2 hrs of toxin addition; type: functional, cell-based; settings: Chlorocebus sabaeus, time 3.0 hrs
[2] = tested on: Vero; experiment: Inhibition of Escherichia coli Stx2a using african green monkey Vero cell assessed as inhibition of depurination incubated pretreated cells for 1 hr measured after 2 hrs of toxin addition; type: cell-based; settings: time 3.0 hrs

SMILES | Activity [1] | inhibition [2]
Cc1ccccc1-c1ccc(C(=O)O)s1 | inactive | inactive
CCc1ccccc1-c1ccc(C(=O)O)s1 | inactive | inactive
Cc1cc(C)c(-c2ccc(C(=O)O)s2)c(C)c1 | inactive | inactive
Cc1cccc(C)c1-c1ccc(C(=O)O)s1 | inactive | inactive

— ChEMBL document CHEMBL5030555
